System: SARS-CoV2
Assay: SARS-CoV2 infection of human ACE2 mice, paquinimod nasal drop group versus control
Format: in vivo
Conditions: human ACE2 mice, paquinimod nasal drop group compared with control group, FIG. 17

CCc1cccc2c1c(O)c(C(=O)N(CC)c1ccccc1)c(=O)n2C [paquinimod]
resistance to SRAS-CoV2: significantly more resistant

Reference: patent US20220195432A9 (priority 2020, published 2022)
